Structures can show the parent of a compound that is named as a salt.
Each compound was assayed on relapsed AML cells (assay: Drug sensitivity assay, 1,536-well, 3-day culture with individual approved drugs at 10 μM, viability by alamarBlue). Details: not given.
Assay type: cell-based, human
Procedure, shortened: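 Three-day exposure of primary AML cells to individual drugs in 1,536-well format, viability read as percent live cells. Cells were thawed, cultured overnight, sorted by FACS for viable blasts and plated at 4,000-4,500 cells/5 μL in cytokine-supplemented IMDM/BIT medium.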

`COC(=O)C1=C(C)NC(C)=C(C(=O)OCCCN2CCC(c3ccccc3)(c3ccccc3)CC2)[C@H]1c1cccc([N+](=O)[O-])c1` [NIGULDIPINE] was tested, and the “#Cases >70% cell death” value was 12.

Same assay, conditions: number of relapsed AML cases out of 18 tested with >70% cell death; 10 μM, 3-day culture

Compared with `C[C@H]1COc2c(C3(N)CC3)c(F)cc3c(=O)c(C(=O)O)cn1c23` [PAZUFLOXACIN], `N=C(N)c1ccc(OCCCCCOc2ccc(C(=N)N)cc2)cc1` [PENTAMIDINE] is higher in “#Cases >70% cell death” value: 1 for the first, 2 for the second.

Going from `COC(=O)Nc1nc2ccc(Sc3ccccc3)cc2[nH]1` [FENBENDAZOLE] to `CN1CCCC(n2nc(Cc3ccc(Cl)cc3)c3ccccc3c2=O)CC1` (stereo not shown) [AZELASTINE], the “#Cases >70% cell death” value falls from 5 to 2.

First: C[C@@H]1C[C@H]2[C@@H]3CCC4=CC(=O)C=C[C@]4(C)[C@@]3(Cl)[C@@H](O)C[C@]2(C)[C@@]1(OC(=O)c1ccco1)C(=O)CCl [MOMETASONE FUROATE]
Second: MONENSIN SODIUM [MONENSIN SODIUM (MONENSIN A IS SHOWN)]
The “#Cases >70% cell death” value of the first is lower: 2 for the first, 7 for the second.

Compared with `COc1cc2c(Nc3ccc(Br)cc3F)ncnc2cc1OCC1CCN(C)CC1` [VANDETANIB], `CCN(CC)CCOc1ccc2c(c1)C(=O)c1cc(OCCN(CC)CC)ccc1-2` [TILORONE] is higher in “#Cases >70% cell death” value: 1 for the first, 10 for the second.

Going from `O=C(O)[C@]1(Cc2cccc(Nc3nccs3)n2)CC[C@@H](Oc2cccc(Cl)c2F)CC1` [VX-689 (MK5108)] to `OCCN1CCN(CCCN2c3ccccc3Sc3ccc(C(F)(F)F)cc32)CC1` [FLUPHENAZINE], the “#Cases >70% cell death” value rises from 1 to 3.

Going from `CCN(CC)CCOc1ccc(C(=C(Cl)c2ccccc2)c2ccccc2)cc1` [CLOMIFENE] to `C/C=C(\C)C(=O)N[C@@H](c1ccccc1)[C@@H](O)C(=O)O[C@H]1C[C@@]2(O)[C@@H](OC(=O)c3ccccc3)[C@@H]3[C@]4(OC(C)=O)CO[C@@H]4C[C@H](O)[C@@]3(C)C(=O)[C@H](OC(C)=O)C(=C1C)C2(C)C` [CEPHALOMANNINE], the “#Cases >70% cell death” value falls from 10 to 7.

Going from `CCCCOc1ccc(CC(=O)NO)cc1` [BUFEXAMAC] to BLEOMYCIN, the “#Cases >70% cell death” value falls from 9 to 2.

Going from `N#CC[C@H](C1CCCC1)n1cc(-c2ncnc3[nH]ccc23)cn1` [RUXOLITINIB] to `CCC(=O)O[C@]1(C(=O)SCF)[C@H](C)C[C@H]2[C@@H]3C[C@H](F)C4=CC(=O)C=C[C@]4(C)[C@@]3(F)[C@@H](O)C[C@@]21C` [FLUTICASONE PROPIONATE], the “#Cases >70% cell death” value falls from 6 to 3.

Compared with `N#Cc1cc(CN2CCC(Nc3ncnc4sc(Cl)cc34)CC2)ccc1F` [PRX-8066], `C[n+]1cc2c3c(ccc2c2ccc4cc5c(cc4c21)OCO5)OCO3` [SANGUINARIUM CHLORIDE] is higher in “#Cases >70% cell death” value: 1 for the first, 18 for the second.

Compared with `Cc1cc(C#N)cc(C)c1Oc1nc(Nc2ccc(C#N)cc2)nc(N)c1Br` [ETRAVIRINE], `O=c1[nH]c(=O)n([C@H]2C[C@H](O)[C@@H](CO)O2)cc1F` [FLOXURIDINE] is higher in “#Cases >70% cell death” value: 1 for the first, 8 for the second.

Going from `COc1cc2c(cc1O)CC[C@@H]1[C@@H]2CC[C@]2(C)[C@@H](O)CC[C@@H]12` [2-METHOXYESTRADIOL] to `CCCOc1cc(N)ccc1C(=O)OCCN(CC)CC` [PROPOXYCAINE HYDROCHLORIDE], the “#Cases >70% cell death” value falls from 2 to 1.

Going from `CS(=O)(=O)CCNCc1ccc(-c2ccc3ncnc(Nc4ccc(OCc5cccc(F)c5)c(Cl)c4)c3c2)o1` [LAPATINIB] to `COc1ccc2c(c1)[nH]c1c(C)nccc12` [HARMINE], the “#Cases >70% cell death” value rises from 2 to 3.

Going from `CCN(CC)CCOCCOC(=O)C(CC)(CC)c1ccccc1.O=C(O)CC(O)(CC(=O)O)C(=O)O` [OXELAIDIN CITRATE] to `C[C@@H]1CCN(C(=O)CC#N)C[C@@H]1N(C)c1ncnc2[nH]ccc12` [TOFACETINIB], the “#Cases >70% cell death” value rises from 2 to 4.

`COc1ncnc(NS(=O)(=O)c2ccc(N)cc2)c1OC` [SULFADOXINE] and `CC(=O)[C@@]1(O)CC[C@H]2[C@@H]3C=C(Cl)C4=CC(=O)[C@@H]5C[C@@H]5[C@]4(C)[C@H]3CC[C@@]21C` [CYPROTERONE] are the same in “#Cases >70% cell death” value: 1 for the first, 1 for the second.

Going from `O=C(Nc1cccnn1)N1CCC(=Cc2cccc(Oc3ccc(C(F)(F)F)cn3)c2)CC1` [PF-4457845] to `Nc1ccn([C@@H]2O[C@H](CO)[C@@H](O)[C@@H]2O)c(=O)n1` [CYTARABINE], the “#Cases >70% cell death” value rises from 1 to 16.

First: CN1CCN(CCCN2c3ccccc3Sc3ccc(C(F)(F)F)cc32)CC1 [TRIFLUOPERAZINE]
Second: O=C(/C=C/c1cccc(S(=O)(=O)Nc2ccccc2)c1)NO [BELINOSTAT]
The “#Cases >70% cell death” value of the first is higher: 3 for the first, 1 for the second.

First: CN[C@H](C(=O)N[C@H](C(=O)N(C)[C@H](/C=C(\C)C(=O)O)C(C)C)C(C)(C)C)C(C)(C)c1ccccc1 [TALTOBULIN]
Second: GRAMICIDIN [GRAMICIDIN (GRAMICIDIN A SHOWN)]
The “#Cases >70% cell death” value of the first is higher: 14 for the first, 9 for the second.

First: Cn1cncc1[C@@](N)(c1ccc(Cl)cc1)c1ccc2c(c1)c(-c1cccc(Cl)c1)cc(=O)n2C [TIPIFARNIB]
Second: Nc1nc(F)nc2c1ncn2[C@@H]1O[C@H](CO)[C@@H](O)[C@@H]1O [FLUDARABINE]
The “#Cases >70% cell death” value of the first is lower: 7 for the first, 16 for the second.

Going from `CC(C)(C)c1nc(-c2cccc(NS(=O)(=O)c3c(F)cccc3F)c2F)c(-c2ccnc(N)n2)s1` [DABRAFENIB] to `O=C(O)/C=C/c1ccc(-c2ccc(O)c(C34CC5CC(CC(C5)C3)C4)c2)cc1` [ADAROTENE], the “#Cases >70% cell death” value rises from 4 to 11.

Going from `CN1CCc2cccc3c2[C@H]1Cc1ccc(O)c(O)c1-3` [APOMORPHINE] to `CCOc1ccc2nc(S(N)(=O)=O)sc2c1` [ETHOXZOLAMIDE], the “#Cases >70% cell death” value falls from 5 to 2.

First: O=C(/C=C/c1cccnc1)NCCCCC1CCN(C(=O)c2ccccc2)CC1 [APO-866]
Second: CC(=O)O[C@H]1C[C@H](O[C@H]2[C@@H](O)C[C@H](O[C@H]3[C@@H](O)C[C@H](O[C@H]4CC[C@@]5(C)[C@H](CC[C@@H]6[C@@H]5C[C@@H](O)[C@]5(C)[C@@H](C7=CC(=O)OC7)CC[C@]65O)C4)O[C@@H]3C)O[C@@H]2C)O[C@H](C)[C@H]1O[C@@H]1O[C@H](CO)[C@@H](O)[C@H](O)[C@H]1O [LANATOSIDE C]
The “#Cases >70% cell death” value of the first is lower: 17 for the first, 18 for the second.

Compared with `CC[C@]1(O)C[C@@H]2CN(CCc3c([nH]c4ccccc34)[C@@](C(=O)OC)(c3cc4c(cc3OC)N(C)[C@H]3[C@@](O)(C(N)=O)[C@H](O)[C@]5(CC)C=CCN6CC[C@]43[C@@H]65)C2)C1`, `Nc1ccncc1` [4-AMINOPYRIDINE] is lower in “#Cases >70% cell death” value: 9 for the first, 1 for the second.

Compared with `CC(=O)O[C@@]12CO[C@@H]1C[C@H](O)[C@@]1(C)C(=O)[C@H](O)C3=C(C)[C@@H](O)C[C@@](O)([C@@H](OC(=O)c4ccccc4)[C@H]21)C3(C)C` [10-DAB], `Cc1cc(N)c2ccccc2[n+]1CCCCCCCCCC[n+]1c(C)cc(N)c2ccccc21` [DEQUALINIUM CHLORIDE] is higher in “#Cases >70% cell death” value: 1 for the first, 17 for the second.

ABAMECTIN and `COc1cccc2c1C(=O)c1c(O)c3c(c(O)c1C2=O)C[C@@](O)(C(=O)CO)C[C@@H]3O[C@H]1C[C@H](N)[C@H](O)[C@H](C)O1` [DOXORUBICIN] are the same in “#Cases >70% cell death” value: 18 for the first, 18 for the second.

Compared with `CC(C)(C)[C@]1(O)CCN2C[C@H]3c4ccccc4CCc4cccc(c43)[C@@H]2C1.Cl` [(−)-BUTACLAMOL HCL], `CCCCCN(C)CCC(O)(P(=O)(O)O)P(=O)(O)O` [IBANDRONATE] is lower in “#Cases >70% cell death” value: 3 for the first, 1 for the second.

Compared with `Cn1nnc2c(C(N)=O)ncn2c1=O` [TEMOZOLAMIDE], `CCCCNc1ccc(C(=O)OCCN(C)C)cc1` [TETRACAINE] is lower in “#Cases >70% cell death” value: 14 for the first, 12 for the second.

`CC[C@H]1OC(=O)C[C@@H](O)[C@H](C)[C@@H](O[C@@H]2O[C@H](C)[C@@H](O)[C@H](N(C)C)[C@H]2O)[C@@H](CCN2C[C@H](C)C[C@H](C)C2)C[C@@H](C)C(=O)/C=C/C(C)=C/[C@@H]1CO[C@@H]1O[C@H](C)[C@@H](O)[C@@H](OC)[C@H]1OC` [TILMICOSIN] and `COCCCC/C(=N\OCCN)c1ccc(C(F)(F)F)cc1` [FLUVOXAMINE MALEATE] are the same in “#Cases >70% cell death” value: 1 for the first, 1 for the second.

IFENPRODIL TARTRATE and `CCN[C@H]1C[C@H](C)S(=O)(=O)c2sc(S(N)(=O)=O)cc21` [DORZOLAMIDE] are the same in “#Cases >70% cell death” value: 4 for the first, 4 for the second.

Going from `CC[C@H]1OC(=O)C[C@@H](O)[C@H](C)[C@@H](O[C@@H]2O[C@H](C)[C@@H](O[C@H]3C[C@@](C)(O)[C@@H](O)[C@H](C)O3)[C@H](N(C)C)[C@H]2O)[C@@H](CC=O)C[C@@H](C)C(=O)/C=C/C(C)=C/[C@@H]1CO[C@@H]1O[C@H](C)[C@@H](O)[C@@H](OC)[C@H]1OC` [TYLOSIN] to `C[C@@H]1O[C@@H](O[C@@H]2C=C3CC[C@@H]4[C@H](CC[C@]5(C)[C@@H](c6ccc(=O)oc6)CC[C@]45O)[C@@]3(C)CC2)[C@H](O)[C@H](O)[C@H]1O` [PROSCILLARIDIN], the “#Cases >70% cell death” value rises from 1 to 18.

Going from `O=C(CCCCCCC(=O)Nc1ccccc1)NO` [VORINOSTAT] to `CCCSc1ccc2nc(NC(=O)OC)[nH]c2c1` [ALBENDAZOLE], the “#Cases >70% cell death” value falls from 18 to 9.

`COc1cc2c(cc1OC)CN(CCc1ccc(NC(=O)c3cccc4c(=O)c5cccc(OC)c5[nH]c34)cc1)CC2` and NONOXYNOL-9 are the same in “#Cases >70% cell death” value: 2 for the first, 2 for the second.

Compared with `COc1ccc(S(=O)(=O)Nc2cccnc2Nc2ccc(O)cc2)cc1` [ABT-751], APILIMOD MESYLATE is lower in “#Cases >70% cell death” value: 5 for the first, 4 for the second.

Compared with `Oc1c(I)cc(Cl)c2cccnc12` [CLIOQUINOL], `CCCCC(CC)CNC(=N)NC(=N)NCCCCCCNC(=N)NC(=N)NCC(CC)CCCC` (stereo not shown) [ALEXIDINE] is higher in “#Cases >70% cell death” value: 6 for the first, 18 for the second.

`OCCN(CCO)c1nc(N2CCCCC2)c2nc(N(CCO)CCO)nc(N3CCCCC3)c2n1` [DIPYRIDAMOLE] and `C[C@]12CC[C@@H]3c4ccc(O)cc4CC[C@H]3[C@@H]1CC[C@@H]2OC(=O)CCC1CCCC1` [ESTRADIOL CYPIONATE] are the same in “#Cases >70% cell death” value: 2 for the first, 2 for the second.

In the case of `CC(=O)N1CCN(c2ccc(OCC3COC(Cn4ccnc4)(c4ccc(Cl)cc4Cl)O3)cc2)CC1` (stereo not shown) [KETOCONAZOLE], the “#Cases >70% cell death” value is reported as 5.

— patent publication US20210405025A1, “IDENTIFYING COMPOUNDS FOR TREATING CANCER AND USE THEREOF” (THE UAB RESEARCH FOUNDATION, priority 2018, published 2021)
